Legend:
[1] = tested on: spleen cells from CBA and BALB/c mice; assay: Allogeneic mixed lymphocyte reaction (MLR); type: cell-based; conditions: Mus musculus, two-way MLR, 3H-thymidine incorporation
Method: The two-way MLR is performed according to standard procedures (J. Immunol. Methods, 1973, 2, 279 and Meo T. et al., Immunological Methods, New York, Academic Press, 1979, 227-39). Briefly, spleen cells from CBA and BALB/c mice (1.6×10^5 cells from each strain per well in flat bottom tissue culture microtiter plates, 3.2×10^5 in total) are incubated in RPMI medium containing 10% FCS, 100 U/ml penicillin, 100 μg/ml streptomycin (Gibco BRL, Basel, Switzerland), 50 μM 2-mercaptoethanol (Fluka, Buchs, Switzerland) and serially diluted compounds. Seven three-fold dilution steps in duplicates per test compound are performed. After four days of incubation 1 μCi ^3H-thymidine is added. Cells are harvested after an additional five-hour incubation period, and incorporated ^3H-thymidine is determined according to standard procedures. Background values (low control) of the MLR are the proliferation of BALB/c cells alone. Low controls are subtracted from all values. High controls without any sample are taken as 100% proliferation. Percent inhibition by the samples is calculated, and the concentrations required for 50% inhibition (IC50 values) are determined.

Human recombinant PKCβ1 = molecular target: T1, Human recombinant PKCβ1 (Homo sapiens, UniProt P05771); assay: Protein Kinase Cβ1 assay; type: biochemical
T1 construct: purchased Oxford Biomedical Research
T1 sequence (P05771 whole entry): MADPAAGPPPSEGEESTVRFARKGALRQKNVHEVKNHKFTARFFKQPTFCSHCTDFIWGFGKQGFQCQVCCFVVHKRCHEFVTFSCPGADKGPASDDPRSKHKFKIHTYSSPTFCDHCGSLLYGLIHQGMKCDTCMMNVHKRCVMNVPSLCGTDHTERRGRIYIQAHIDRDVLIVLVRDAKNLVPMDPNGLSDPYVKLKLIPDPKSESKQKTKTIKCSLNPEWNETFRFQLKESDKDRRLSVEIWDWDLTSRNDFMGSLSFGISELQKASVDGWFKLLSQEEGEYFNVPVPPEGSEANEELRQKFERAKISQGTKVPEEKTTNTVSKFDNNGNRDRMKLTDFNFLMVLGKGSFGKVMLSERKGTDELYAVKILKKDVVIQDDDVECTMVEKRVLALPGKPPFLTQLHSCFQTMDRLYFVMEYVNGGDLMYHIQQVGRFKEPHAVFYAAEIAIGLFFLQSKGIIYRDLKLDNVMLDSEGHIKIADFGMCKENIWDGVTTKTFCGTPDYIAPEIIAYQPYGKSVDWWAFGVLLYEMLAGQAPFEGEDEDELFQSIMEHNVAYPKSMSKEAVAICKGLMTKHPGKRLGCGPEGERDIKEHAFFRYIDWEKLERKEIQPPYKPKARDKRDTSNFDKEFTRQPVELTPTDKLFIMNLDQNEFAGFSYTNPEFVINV
Method: (§1) The compounds of formula I are tested for their activity on different PKC isoforms according to a published method (D. Geiges et al. Biochem. Pharmacol. 1997; 53:865-875) The assay is performed in a 96-well polypropylene microtiterplate (Costar 3794) that has been previously siliconized with Sigmacote (Sigma SL-2). The reaction mixture (50 μl) contains 10 μl of the relevant PKC isozyme together with 25 μl of the test compound and 15 μl of a mix solution that contains 200 μg/ml protamine sulfate, 10 mM Mg(NO3)2, 10 μM ATP (Boehringer 519987) and 3750 Bq of ^33P-ATP (Hartmann Analytic SFC301, 110 TBq/mmol) in 20 mM Tris-buffer pH 7.4+0.1% BSA. Incubation is performed for 15 min at 32° C. in a microtiterplate shaking incubator (Biolabo Scientific Instruments). Reaction is stopped by adding 10 μl of 0.5 M Na2EDTA, pH 7.4. 50 μl of mixture are pipetted onto a pre-wetted phosphocellulose paper (Whatmann 3698-915) under gentle pressure. Non-incorporated ATP is washed away with 100 μl bi-dist H2O. The paper is washed twice in 0.5% H3PO4 for 15 min followed by 5 min in EtOH. Thereafter the paper is dryed and placed in an omnifilter (Packard 6005219), and overlayed with 10 μl/well of Microscint-O (Packard 6013611) before counting in a Topcount radioactivity counter (Packard). IC50 measurement is performed on a routine basis by incubating a serial dilution of inhibitor at concentrations ranging between 1-1000 μM according to the method described above. IC50 value are calculated from the graph by sigmoidal curve fitting.
Human recombinant PKCβ1 was obtained from Oxford Biomedical Research and is used under the assay conditions as described under Section A.1 above. In this assay, compounds of formula I inhibit PKCβ1 with an IC50≦1 μM.

[2] = tested on: Jurkat cells transfected with a human interleukin-2 promoter/reporter gene construct; assay: CD28 costimulation assay (IL-2 promoter/luciferase reporter); type: cell-based; conditions: stimulated Jurkat cells, luciferase reporter
Method: The assay is performed with Jurkat cells transfected with a human interleukin-2 promoter/reporter gene construct as described by Baumann G et al. in Transplant Proc. 1992; 24:43-8, the β-galactosidase reporter gene being replaced by the luciferase gene (de Wet J., et al., Mol. Cell Biol. 1987, 7(2), 725-737). Cells are stimulated by solid phase-coupled antibodies or phorbol myristate acetate (PMA) and the Ca^++ ionophore ionomycin as follows. For antibody-mediated stimulation Microlite TM1 microtiter plates (Dynatech) are coated with 3 μg/ml goat anti-mouse IgG Fc antibodies (Jackson) in 55 μl phosphate-buffered saline (PBS) per well for three hours at RT. Plates are blocked after removing the antibodies by incubation with 2% bovine serum albumin (BSA) in PBS (300 μl per well) for 2 hours at RT. After washing three times with 300 μl PBS per well, 10 ng/ml anti-T cell receptor antibodies (WT31, Becton & Dickinson) and 300 ng/ml anti-CD28 antibodies (15E8) in 50 μl 2% BSA/PBS are added as stimulating antibodies and incubated overnight at 4° C. Finally the plates are washed three times with 300 μl PBS per well. Seven three-fold serial dilutions of test compounds in duplicates in assay medium (RPMI 1640/10% fetal calf serum (FCS) containing 50 μM 2-mercaptoethanol, 100 units/ml penicillin and 100 μg/ml streptomycin) are prepared in separate plates, mixed with transfected Jurkat cells (clone K22 290_H23) and incubated for 30 minutes at 37° C. in 5% CO2. […] After incubation for 5.5 hours at 37° C. in 5% CO2, the level of luciferase is determined by bioluminescence measurement. […] Luciferase activity is assessed with a bioluminescence reader (Labsystem, Helsinki, Finland) after automatic addition of 50 μl per well luciferase reaction buffer containing 20 mM Tricine, 1.07 mM (MgCO3)4Mg(OH)2×5H2O, 2.67 mM MgSO4, 0.1 mM EDTA, 33.3 mM DTT, 270 μM coenzyme A, 470 μM luciferin (Chemie Brunschwig AG), 530 μM ATP, pH 7.8. […] The inhibition obtained in the presence of a test compound is calculated as percent inhibition of the high control. […]

Human recombinant PKCα = molecular target: T2, Human recombinant PKCα (Homo sapiens, UniProt P17252); assay: Protein Kinase Cα assay; type: biochemical
T2 construct: purchased Oxford Biomedical Research
Method: as §1
Human recombinant PKCα was obtained from Oxford Biomedical Research and is used under the assay conditions as described under Section A.1 above. In this assay, compounds of formula I inhibit PKCα with an IC50≦1 μM.

Human recombinant PKCη = molecular target: T3, Human recombinant PKCη (Homo sapiens, UniProt P24723); assay: Protein Kinase Cη assay; type: biochemical
T3 construct: purchased PanVera
T3 sequence (P24723 whole entry): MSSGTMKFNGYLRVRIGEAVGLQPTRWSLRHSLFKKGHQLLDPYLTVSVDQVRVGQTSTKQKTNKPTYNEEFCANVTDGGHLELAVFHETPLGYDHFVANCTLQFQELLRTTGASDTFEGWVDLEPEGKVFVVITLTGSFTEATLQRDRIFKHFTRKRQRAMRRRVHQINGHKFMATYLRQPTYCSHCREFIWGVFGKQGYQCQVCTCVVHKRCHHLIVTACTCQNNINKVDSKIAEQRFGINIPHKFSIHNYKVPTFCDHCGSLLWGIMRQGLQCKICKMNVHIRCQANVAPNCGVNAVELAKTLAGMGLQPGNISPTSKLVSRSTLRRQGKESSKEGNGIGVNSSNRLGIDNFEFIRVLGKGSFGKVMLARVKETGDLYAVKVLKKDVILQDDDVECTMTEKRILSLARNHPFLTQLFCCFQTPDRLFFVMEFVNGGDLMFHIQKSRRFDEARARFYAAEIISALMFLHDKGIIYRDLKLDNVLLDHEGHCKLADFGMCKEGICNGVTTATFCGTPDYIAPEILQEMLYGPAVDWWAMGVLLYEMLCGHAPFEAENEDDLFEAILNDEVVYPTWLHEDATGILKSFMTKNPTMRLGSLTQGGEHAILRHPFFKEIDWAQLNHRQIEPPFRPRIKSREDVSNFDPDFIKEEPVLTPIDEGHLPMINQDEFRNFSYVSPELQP
Method: as §1, with “IC50 measurement is performed on a routine basis by incubating a serial dilution of inhibitor at concentrations ranging between 1-1000 μM according to the method described above.” left out, “fitting. […]” for “fitting.”

GSK-3β = GSK-3β (Homo sapiens, UniProt P49841); assay: Inhibition of GSK-3β; type: biochemical
Sequence of GSK-3β (P49841 whole entry, species assumed): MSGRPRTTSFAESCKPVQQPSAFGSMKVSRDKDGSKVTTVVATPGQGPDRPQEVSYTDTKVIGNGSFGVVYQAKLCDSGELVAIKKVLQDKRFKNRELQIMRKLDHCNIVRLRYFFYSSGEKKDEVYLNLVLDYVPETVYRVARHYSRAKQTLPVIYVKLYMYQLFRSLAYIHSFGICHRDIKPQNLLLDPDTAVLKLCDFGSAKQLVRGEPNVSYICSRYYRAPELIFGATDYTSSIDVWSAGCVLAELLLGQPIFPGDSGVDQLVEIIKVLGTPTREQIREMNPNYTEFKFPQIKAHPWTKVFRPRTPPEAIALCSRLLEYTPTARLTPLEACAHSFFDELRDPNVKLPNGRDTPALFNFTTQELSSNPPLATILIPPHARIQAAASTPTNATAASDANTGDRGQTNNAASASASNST
Method: The GSK-3β bidding assay is performed in 50 μl reactions in 96 well polypropylene plate, each reaction containing 20 mM magnesium chloride, 40 μM ATP, 2 mM DTT, 88.5 μM biotinylated and phosphorylated CREB-peptide substrate (biotin-KRREILSRRPS(PO4)YR—OH; Q. M. Wang et al., J. Biol. Chem. 269, 14566-14574, 1994), [γ-^33P]ATP (1 μCi) and 2 μl of the compound to be tested in DMSO (various concentrations). 15 μl of GSK-3β (various concentrations) is added and the mixture is incubated at 30° C. for 1 hour. The reaction is stopped by transferring 25 μl of the mixture to a phosphocellulose plate containing 130 μl of 1.85% phosphoric acid. The free radionucleotides in the membrane are washed off under vacuum with 1.85% phosphoric acid (5 times). After the last wash, the plate is transferred to an adaptor plate and 50 μl of scintillation cocktail (Microscint-20, Packard, cat. # 20-133) is added to each well and the amount of radioactivity is counted in a top counter. Compounds of formula I are active in this assay.

Human recombinant PKCθ = Human recombinant PKCθ (Homo sapiens, UniProt Q04759); assay: Protein Kinase C θ assay; type: biochemical
Sequence of Human recombinant PKCθ (Q04759 whole entry): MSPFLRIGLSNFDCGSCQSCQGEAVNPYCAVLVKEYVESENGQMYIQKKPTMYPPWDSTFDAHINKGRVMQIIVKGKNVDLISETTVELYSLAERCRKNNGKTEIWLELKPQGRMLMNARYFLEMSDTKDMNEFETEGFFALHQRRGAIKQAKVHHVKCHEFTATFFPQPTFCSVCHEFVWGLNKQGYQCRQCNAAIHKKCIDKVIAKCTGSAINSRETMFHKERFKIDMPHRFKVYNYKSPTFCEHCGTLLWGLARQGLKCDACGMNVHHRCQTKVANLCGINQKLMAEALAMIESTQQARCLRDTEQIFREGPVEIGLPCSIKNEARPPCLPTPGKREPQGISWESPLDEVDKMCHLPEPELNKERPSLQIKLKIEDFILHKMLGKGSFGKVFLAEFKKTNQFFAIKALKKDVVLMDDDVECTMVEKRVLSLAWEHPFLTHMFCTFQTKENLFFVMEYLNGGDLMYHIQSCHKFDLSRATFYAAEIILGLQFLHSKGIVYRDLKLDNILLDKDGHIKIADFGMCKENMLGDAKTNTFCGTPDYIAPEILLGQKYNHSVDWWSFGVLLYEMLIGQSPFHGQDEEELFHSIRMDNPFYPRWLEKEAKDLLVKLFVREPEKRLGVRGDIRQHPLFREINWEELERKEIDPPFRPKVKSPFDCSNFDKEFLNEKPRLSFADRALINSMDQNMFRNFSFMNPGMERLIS
Method: as §1
Human recombinant PKCθ is used under the assay conditions as described above. In this assay, compounds of formula I inhibit PKC θ with an IC50≦1 μM.

Human recombinant PKCδ = molecular target: T4, Human recombinant PKCδ (Homo sapiens, UniProt Q05655); assay: Protein Kinase Cδ assay; type: biochemical
T4 construct: purchased Oxford Biomedical Research
T4 sequence (Q05655 whole entry): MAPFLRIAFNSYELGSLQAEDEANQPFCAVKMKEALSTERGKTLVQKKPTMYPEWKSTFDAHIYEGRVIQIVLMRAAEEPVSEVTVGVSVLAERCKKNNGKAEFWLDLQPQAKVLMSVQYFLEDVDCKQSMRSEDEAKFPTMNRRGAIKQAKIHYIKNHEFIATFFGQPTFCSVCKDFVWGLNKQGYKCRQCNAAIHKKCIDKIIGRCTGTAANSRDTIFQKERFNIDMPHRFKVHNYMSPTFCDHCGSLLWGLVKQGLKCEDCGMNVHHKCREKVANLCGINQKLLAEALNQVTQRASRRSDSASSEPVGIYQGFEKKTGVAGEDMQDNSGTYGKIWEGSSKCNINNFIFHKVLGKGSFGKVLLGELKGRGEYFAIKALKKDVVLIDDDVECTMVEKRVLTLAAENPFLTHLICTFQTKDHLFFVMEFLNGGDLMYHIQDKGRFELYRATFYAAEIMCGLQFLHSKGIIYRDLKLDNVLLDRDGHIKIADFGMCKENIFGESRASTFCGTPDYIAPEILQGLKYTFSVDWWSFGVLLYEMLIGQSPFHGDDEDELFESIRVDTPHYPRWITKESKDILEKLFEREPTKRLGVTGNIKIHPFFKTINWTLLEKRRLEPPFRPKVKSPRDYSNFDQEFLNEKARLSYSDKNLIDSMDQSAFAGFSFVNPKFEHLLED
Method: as §1, with “IC50 measurement is performed on a routine basis by incubating a serial dilution of inhibitor at concentrations ranging between 1-1000 μM according to the method described above.” left out, “fitting. […]” for “fitting.”

Human recombinant PKCε = molecular target: T5, Human recombinant PKCε (Homo sapiens, UniProt Q02156); assay: Protein Kinase Cε assay; type: biochemical; conditions: read-out: IC50 in Protein Kinase Cε assay (sentence prints PKCδ)
T5 construct: purchased Oxford Biomedical Research
T5 sequence (Q02156 1-737): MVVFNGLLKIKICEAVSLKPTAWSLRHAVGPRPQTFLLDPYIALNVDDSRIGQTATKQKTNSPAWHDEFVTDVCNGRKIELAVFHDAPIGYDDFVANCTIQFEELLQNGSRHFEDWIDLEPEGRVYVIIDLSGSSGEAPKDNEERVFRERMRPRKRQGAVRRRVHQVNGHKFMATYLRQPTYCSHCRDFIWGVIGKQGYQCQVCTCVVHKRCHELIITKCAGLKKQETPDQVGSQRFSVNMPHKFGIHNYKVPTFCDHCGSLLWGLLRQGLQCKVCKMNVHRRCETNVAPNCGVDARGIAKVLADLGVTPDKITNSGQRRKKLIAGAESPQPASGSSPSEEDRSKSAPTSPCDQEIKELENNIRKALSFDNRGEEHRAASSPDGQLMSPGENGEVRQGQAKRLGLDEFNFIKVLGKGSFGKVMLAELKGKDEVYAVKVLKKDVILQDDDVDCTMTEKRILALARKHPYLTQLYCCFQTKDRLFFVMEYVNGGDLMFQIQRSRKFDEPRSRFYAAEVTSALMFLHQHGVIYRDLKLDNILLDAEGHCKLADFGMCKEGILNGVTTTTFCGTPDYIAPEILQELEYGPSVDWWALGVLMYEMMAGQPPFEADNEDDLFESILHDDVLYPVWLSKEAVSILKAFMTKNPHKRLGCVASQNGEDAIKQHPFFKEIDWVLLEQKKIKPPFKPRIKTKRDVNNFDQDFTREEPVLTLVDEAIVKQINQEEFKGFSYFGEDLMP
Method: as §1, with “IC50 measurement is performed on a routine basis by incubating a serial dilution of inhibitor at concentrations ranging between 1-1000 μM according to the method described above.” left out, “fitting. […]” for “fitting.”

lymph node enlargement = assay: Graft v. host model; type: in vivo, rat; conditions: days 0-3, lymph nodes removed day 7
Method: Spleen cells (2×10^7) from Wistar/F rats are injected subcutaneously into the right hind footpad of (Wistar/F×Fischer 344)F1 hybrid rats. The left footpad is left untreated. The animals are treated with the test compounds on 4 consecutive days (0-3). The popliteal lymph nodes are removed on day 7, and the weight differences between two corresponding lymph nodes are determined. The results are expressed as the inhibition of lymph node enlargement (given in percent) comparing the lymph node weight differences in the experimental groups to the weight difference between the corresponding lymph nodes from a group of animals left untreated with a test compound. In this assay, an inhibition of 100% is obtained with compound of Example 1 or 10 when administered at a dose of 30 or 10 mg/kg bid, respectively.

| Compound | IC50 [1] | IC50 (Human recombinant PKCβ1) | IC50 [2] | IC50 (Human recombinant PKCα) | IC50 (Human recombinant PKCη) | IC50 (GSK-3β) | IC50 (Human recombinant PKCθ) | IC50 (Human recombinant PKCδ) | IC50 (Human recombinant PKCε) | inhibition of lymph node enlargement (lymph node enlargement; 10 mg/kg bid) | inhibition of lymph node enlargement (lymph node enlargement; 30 mg/kg bid) |
| --- | --- | --- | --- | --- | --- | --- | --- | --- | --- | --- | --- |
| CN(C)Cc1cc2c(C3=C(c4cn(C)c5ccccc45)C(=O)NC3=O)cccc2[nH]1 [Example 39] | 285 nM | 13.2 nM | 46.7 nM | 6.3 nM |  |  |  |  |  |  |  |
| Cc1cccc2c(C3=C(c4c(Cl)ccc5[nH]c(CN(C)C)cc45)C(=O)NC3=O)c[nH]c12 [Example 41] | 32.5 nM | 14.9 nM | 28.3 nM | 7.5 nM | 15 nM | 25 nM | 9.3 nM | 29.5 nM | 7.6 nM |  |  |
| CN1CCN(c2ccc(Cl)c(C3=C(c4c[nH]c5ccccc45)C(=O)NC3=O)n2)CC1 [Example 10] |  |  |  |  |  |  | 5.8 nM |  |  | 100% |  |
| CN1CCN(c2ccc(C(F)(F)F)c(C3=C(c4c[nH]c5ccccc45)C(=O)NC3=O)n2)CC1 [Example 1, 3-(1H-Indol-3-yl)-4-[6-(4-methyl-piperazin-1-yl)-3-tifluoromethyl-pyridin-2-yl]-pyrrole-2,5-dione] | 28.8 nM | 5.9 nM | 13 nM | 2.9 nM | 15.3 nM | 18 nM | 5.4 nM | 21 nM | 14.7 nM |  | 100% |
